SMILES strings stand for the structures.

One experiment deals with JAK3 kinase (Homo sapiens (Human), UniProt P52333). The experiment in a line: JAK3 Homogeneous Time Resolved Fluorescence (HTRF) Assay. The format is binding. The following applies: for IC50: competition binding with fluorescein-labeled ATP competitive probe; for Ratio of JAK3 IC50 to IRAK4 IC50: selectivity for IRAK4 over JAK3. On the procedure: JAK3 Homogeneous Time Resolved Fluorescence (HTRF) Assay
A time resolved FRET-based competition binding assay was used to assess test article binding to JAK3 kinase. His-tagged or GST-tagged kinase at a concentration of 1 nM was incubated with 0.2 nM Tb-labeled detection antibody (anti-His or anti-GST), test compound, and fluorescein-labeled ATP competitive probe at a concentration corresponding to the probe's equilibrium dissociation constant for one hour. Fluorescence at 495 nm and 520 nm was measured using an EnVision microplate reader to quantify FRET between Tb-labeled detection antibody and fluorescein-labeled probe. Background subtracted FRET ratios were normalized to the maximum signal obtained in the absence of test compound. These values were converted to a percent inhibition. Percent inhibition was determined for test compounds at 11 concentrations. The IC50, defined as the concentration of the competing test compound needed to reduce specific binding of the probe by 50%, was calculated using the 4 parameter logistic equation to fit the data.
Background: TR-FRET usually uses a lanthanide donor and a delayed reading to cut background.

In a further experiment the target is IRAK4 (Homo sapiens (Human), UniProt Q9NWZ3). The experiment in a line: IRAK4 Inhibition Assay. The format is biochemical. The following applies: ATP 500 μM; IRAK4 0.6 nM; 60 min room temperature. On the procedure: IRAK4 Inhibition Assay The assays were performed in U-bottom 384-well plates. […] The reaction was initiated by the combination of IRAK4 with substrates and test compounds. The reaction mixture was incubated at room temperature for 60 min. and terminated by adding 45 μL of 35 mM EDTA to each sample. The reaction mixture was analyzed on the Caliper LABCHIP® 3000 (Caliper, Hopkinton, MA) by electrophoretic separation of the fluorescent substrate and phosphorylated product. Inhibition data were calculated by comparison to no enzyme control reactions for 100% inhibition and vehicle-only reactions for 0% inhibition.
IRAK4, sequence (Q9NWZ3 whole entry, species assumed): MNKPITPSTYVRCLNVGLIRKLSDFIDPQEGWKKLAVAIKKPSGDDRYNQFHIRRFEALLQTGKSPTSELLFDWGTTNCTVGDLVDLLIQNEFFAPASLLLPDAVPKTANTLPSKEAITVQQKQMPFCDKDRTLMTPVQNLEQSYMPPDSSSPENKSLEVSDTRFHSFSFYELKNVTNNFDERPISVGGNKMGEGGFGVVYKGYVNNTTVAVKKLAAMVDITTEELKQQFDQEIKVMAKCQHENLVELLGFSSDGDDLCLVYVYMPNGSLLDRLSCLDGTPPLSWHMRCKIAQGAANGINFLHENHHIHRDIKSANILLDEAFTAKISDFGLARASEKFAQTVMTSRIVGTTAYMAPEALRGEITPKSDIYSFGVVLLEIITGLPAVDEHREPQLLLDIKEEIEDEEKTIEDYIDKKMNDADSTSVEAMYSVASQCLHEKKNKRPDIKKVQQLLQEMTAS

JAK3 kinase, sequence (P52333 whole entry): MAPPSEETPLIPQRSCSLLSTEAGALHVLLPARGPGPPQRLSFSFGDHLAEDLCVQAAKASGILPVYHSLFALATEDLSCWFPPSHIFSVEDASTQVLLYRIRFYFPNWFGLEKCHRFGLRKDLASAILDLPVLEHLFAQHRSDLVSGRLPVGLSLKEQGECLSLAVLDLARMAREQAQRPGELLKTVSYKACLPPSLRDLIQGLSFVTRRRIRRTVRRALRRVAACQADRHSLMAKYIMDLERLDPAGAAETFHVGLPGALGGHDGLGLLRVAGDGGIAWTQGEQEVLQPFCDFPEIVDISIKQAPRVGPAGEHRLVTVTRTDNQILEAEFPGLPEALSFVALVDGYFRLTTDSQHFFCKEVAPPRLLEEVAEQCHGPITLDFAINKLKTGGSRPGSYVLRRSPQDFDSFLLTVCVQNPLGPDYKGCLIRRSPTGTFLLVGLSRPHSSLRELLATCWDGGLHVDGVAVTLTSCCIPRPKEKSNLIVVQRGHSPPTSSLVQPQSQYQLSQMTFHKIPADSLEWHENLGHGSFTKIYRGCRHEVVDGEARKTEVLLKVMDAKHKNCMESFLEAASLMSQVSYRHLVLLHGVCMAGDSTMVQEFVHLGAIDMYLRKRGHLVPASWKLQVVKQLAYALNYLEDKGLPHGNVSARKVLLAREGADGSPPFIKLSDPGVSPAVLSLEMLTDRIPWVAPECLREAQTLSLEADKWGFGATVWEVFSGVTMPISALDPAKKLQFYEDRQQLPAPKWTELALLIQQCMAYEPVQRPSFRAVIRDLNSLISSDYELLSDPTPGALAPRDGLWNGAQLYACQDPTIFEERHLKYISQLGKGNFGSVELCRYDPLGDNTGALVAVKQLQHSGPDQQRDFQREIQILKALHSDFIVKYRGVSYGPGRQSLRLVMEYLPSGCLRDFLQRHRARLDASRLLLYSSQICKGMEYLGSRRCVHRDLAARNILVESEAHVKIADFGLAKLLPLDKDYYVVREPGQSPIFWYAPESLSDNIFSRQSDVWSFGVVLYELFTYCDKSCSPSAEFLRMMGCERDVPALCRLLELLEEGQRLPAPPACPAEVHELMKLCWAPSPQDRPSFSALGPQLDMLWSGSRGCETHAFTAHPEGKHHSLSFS

A word on the IC50: it is the point on the concentration scale where inhibition reaches its midpoint. For the compound `CC(C)Nc1c(C(=O)NC[C@@H](F)C(C)(C)O)cnc2cc(-c3cccc(N)c3)nn12` [Example 157, (R)-2-(3-aminophenyl)-N-(2-fluoro-3-hydroxy-3-methylbutyl)-7-(isopropylamino) pyrazolo[1,5-a]pyrimidine-6-carboxamide], at JAK3 kinase, the IC50 is above 50000 nM and the “Ratio of JAK3 IC50 to IRAK4 IC50” value is above 1613. Moreover, the half-inhibitory concentration (IC50) at IRAK4 turned out to be 31 nM.
For `CC(C)Nc1c(C(=O)NC[C@@H](F)C(C)(C)O)cnc2cc(-c3ccccc3)nn12` [Example 128, (R)—N-(2-fluoro-3-hydroxy-3-methylbutyl)-7-(isopropylamino)-2-phenylpyrazolo[1,5-a]pyrimidine-6-carboxamide] the same measures were above 10000 nM, above 175 and 57 nM.
For `Cc1cc(F)ncc1-c1cc2c(NCCC(C)(C)O)c(C(=O)NC[C@@H](F)C(C)(C)O)cnn2c1` [Example 24, (R)—N-(2-fluoro-3-hydroxy-3-methylbutyl)-6-(6-fluoro-4-methylpyridin-3-yl)-4-((3-hydroxy-3-methylbutyl)amino)pyrrolo[1,2-b]pyridazine-3-carboxamide] the same measures were above 10000 nM, above 71 and 140 nM.
For `CC(C)(O)[C@H](F)CNC(=O)c1cnc2cc(-c3ccncc3F)nn2c1NCCC1CCCCO1` (stereo partly drawn) [Example 160, N—((R)-2-fluoro-3-hydroxy-3-methylbutyl)-2-(3-fluoropyridin-4-yl)-7-((2-(tetrahydro-2H-pyran-2-yl)ethyl)amino)pyrazolo[1,5-a]pyrimidine-6-carboxamide], at JAK3 kinase, the IC50 was above 50000 nM and the “Ratio of JAK3 IC50 to IRAK4 IC50” value was above 1111. Also, the IC50 on IRAK4 worked out at 45 nM.
The corresponding values for `CC(C)Nc1c(C(=O)NC[C@@H](F)C(C)(C)O)cnn2cc(-c3cncs3)nc12` [Example 102, (R)—N-(2-fluoro-3-hydroxy-3-methylbutyl)-8-(isopropylamino)-2-(thiazol-5-yl)imidazo[1,2-b]pyridazine-7-carboxamide] are above 50000 nM, above 2273 and 22 nM.
As for `COc1ccc(-c2cc3ncc(C(=O)NC[C@@H](F)C(C)(C)O)c(NC(C)C)n3n2)cn1` [Example 142, (R)—N-(2-fluoro-3-hydroxy-3-methylbutyl)-7-(isopropylamino)-2-(6-methoxypyridin-3-yl)pyrazolo[1,5-a]pyrimidine-6-carboxamide], the IC50 at JAK3 kinase was above 10000 nM; at IRAK4, 140 nM. Further, the “Ratio of JAK3 IC50 to IRAK4 IC50” value on JAK3 kinase was above 71.
The corresponding values for `COc1ccc(-c2cc3c(NC4CCOCC4)c(C(=O)NC[C@@H](F)C(C)(C)O)cnn3c2)cn1` [Example 10, (R)—N-(2-fluoro-3-hydroxy-3-methylbutyl)-6-(6-methoxypyridin-3-yl)-4-((tetrahydro-2H-pyran-4-yl)amino)pyrrolo[1,2-b]pyridazine-3-carboxamide] are above 10000 nM, 57 nM and above 175.
`CCOC(=O)N[C@H]1CC[C@H](NC(=O)c2cnn3cc(-c4ccncc4F)cc3c2NC(C)C)CC1` [Example 67, ethyl ((1r,4r)-4-(6-(3-fluoropyridin-4-yl)-4-(isopropylamino)pyrrolo[1,2-b]pyridazine-3-carboxamido)cyclohexyl)carbamate]: at JAK3 kinase, the IC50 was above 50000 nM and the “Ratio of JAK3 IC50 to IRAK4 IC50” value is reported as 3846. The IC50 at IRAK4 was 13 nM.
The corresponding values for `CC(C)(O)[C@H](F)CNC(=O)c1cnn2cc(-c3cccnc3)cc2c1NC1CCOCC1` [Example 6, (R)—N-(2-fluoro-3-hydroxy-3-methylbutyl)-6-(pyridin-3-yl)-4-((tetrahydro-2H-pyran-4-yl)amino) pyrrolo[1,2-b] pyridazine-3-carboxamide] are above 50000 nM, above 926 and 54 nM.
On to `CC(C)Nc1c(C(=O)NC[C@@H](F)C(C)(C)O)cnn2cc(C3CC3)cc12` [Example 36, (R)-6-cyclopropyl-N-(2-fluoro-3-hydroxy-3-methylbutyl)-4-(isopropylamino)pyrrolo[1,2-b]pyridazine-3-carboxamide], for which, on JAK3 kinase, the IC50 is above 50000 nM and the “Ratio of JAK3 IC50 to IRAK4 IC50” value is listed as above 1087. For the same compound, the IC50 at IRAK4 turned out to be 46 nM.
For `CC(C)Nc1c(C(=O)NC[C@@H](F)C(C)(C)O)cnc2cc(-c3cccc(F)c3)nn12` [Example 140, (R)—N-(2-fluoro-3-hydroxy-3-methylbutyl)-2-(3-fluorophenyl)-7-(isopropylamino)pyrazolo[1,5-a]pyrimidine-6-carboxamide] the same measures were above 50000 nM, above 610 and 82 nM.
For `CC(C)Nc1c(C(=O)NC[C@@H](F)C(C)(C)O)cnn2cc(Nc3cc(C#N)ccn3)cc12` [Example 41, (R)-6-((4-cyanopyridin-2-yl)amino)-N-(2-fluoro-3-hydroxy-3-methylbutyl)-4-(isopropylamino)pyrrolo[1,2-b]pyridazine-3-carboxamide] the same measures were above 50000 nM, above 81 and 620 nM.
For `CC(C)(O)[C@H](F)CNC(=O)c1cnn2cc(-c3cccnc3)cc2c1NC1CCCC1` [Example 30, (R)-4-(cyclopentylamino)-N-(2-fluoro-3-hydroxy-3-methylbutyl)-6-(pyridin-3-yl)pyrrolo[1,2-b]pyridazine-3-carboxamide] the same measures were above 10000 nM, above 182 and 55 nM.
As for `CC(C)Nc1c(C(=O)NC[C@@H](F)C(C)(C)O)cnn2cc(Nc3ccc(C#N)cn3)cc12` [Example 40, (R)-6-((5-cyanopyridin-2-yl)amino)-N-(2-fluoro-3-hydroxy-3-methylbutyl)-4-(isopropylamino) pyrrolo[1,2-b]pyridazine-3-carboxamide], on JAK3 kinase, the IC50 is above 50000 nM and the “Ratio of JAK3 IC50 to IRAK4 IC50” value is above 208. The IC50 on IRAK4 stood at 240 nM.
On to `CC(C)Nc1c(C(=O)NC[C@@H](F)C(C)(C)O)cnn2cc(-c3ccc(F)cn3)cc12` [Example 18, (R)—N-(2-fluoro-3-hydroxy-3-methylbutyl)-6-(5-fluoropyridin-2-yl)-4-(isopropylamino)pyrrolo[1,2-b]pyridazine-3-carboxamide], for which, on JAK3 kinase, the IC50 was above 50000 nM and the “Ratio of JAK3 IC50 to IRAK4 IC50” value is on record as above 4167. For the same compound, the IC50 at IRAK4 was 12 nM.
On to `CC(C)Nc1c(C(=O)NC[C@@H](F)C(C)(C)O)cnc2cc(-c3cc[nH]c(=O)c3)nn12` [Example 154, (R)—N-(2-fluoro-3-hydroxy-3-methylbutyl)-7-(isopropylamino)-2-(2-oxo-1,2-dihydropyridin-4-yl)pyrazolo[1,5-a]pyrimidine-6-carboxamide], for which, on JAK3 kinase, the IC50 is above 50000 nM and the “Ratio of JAK3 IC50 to IRAK4 IC50” value was above 538. The IC50 at IRAK4 worked out at 93 nM.
As for `CC(C)Nc1c(C(=O)N[C@H]2CC[C@H](O)CC2)cnn2cc(-c3cccnc3)cc12` [Example 58, N-((1r,4r)-4-hydroxycyclohexyl)-4-(isopropylamino)-6-(pyridin-3-yl)pyrrolo[1,2-b]pyridazine-3-carboxamide], on JAK3 kinase, the IC50 is above 50000 nM and the “Ratio of JAK3 IC50 to IRAK4 IC50” value is on record as above 926. The half-maximal inhibitory concentration (IC50) at IRAK4 was determined as 54 nM.

(Values after US12570659B2, “Bicyclic heteroaryl compounds useful as IRAK4 inhibitors” (BRISTOL-MYERS SQUIBB COMPANY, priority 2019, dated 2026).)
